Test results from ChEMBL document CHEMBL5303573, “Mapping human microbiome drug metabolism by gut bacteria and their genes” (Nature, 2019).

Columns and labels:
[1] = The drug is tested on Alistipes indistinctus strain: DSM22520 for biotransformation. The drug concentrations were measured before and after a 12-h incubation by liquid-chromatography-coupled mass spectrometry (LC–MS); settings: 2 µM
[2] = The drug is tested on Clostridium ramosum strain: DSM1402 for biotransformation. The drug concentrations were measured before and after a 12-h incubation by liquid-chromatography-coupled mass spectrometry (LC–MS); settings: thomasclavelia ramosa, 2 µM
[3] = The drug is tested on Escherichia coli strain: BW25113 for biotransformation. The drug concentrations were measured before and after a 12-h incubation by liquid-chromatography-coupled mass spectrometry (LC–MS); settings: 2 µM
[4] = bacteroides fragilis, 12 h, 2 µM
Description: The drug is tested on Bacteroides fragilis strain: DS-208 for biotransformation. The drug concentrations were measured before and after a 12-h incubation by liquid-chromatography-coupled mass spectrometry (LC–MS)

[5] = The drug is tested on Anaerococcus hydrogenalis strain: DSM7454 for biotransformation. The drug concentrations were measured before and after a 12-h incubation by liquid-chromatography-coupled mass spectrometry (LC–MS); settings: 2 µM
[6] = The drug is tested on Blautia hansenii strain: DSM20583 for biotransformation. The drug concentrations were measured before and after a 12-h incubation by liquid-chromatography-coupled mass spectrometry (LC–MS); settings: 2 µM
[7] = The drug is tested on Enterobacter cancerogenus strain: ATCC35316 for biotransformation. The drug concentrations were measured before and after a 12-h incubation by liquid-chromatography-coupled mass spectrometry (LC–MS); settings: 2 µM
[8] = The drug is tested on Bacteroides coprophilus strain: DSM18228 for biotransformation. The drug concentrations were measured before and after a 12-h incubation by liquid-chromatography-coupled mass spectrometry (LC–MS); settings: 2 µM
[9] = The drug is tested on Bacteroides vulgatus strain: ATCC8482 for biotransformation. The drug concentrations were measured before and after a 12-h incubation by liquid-chromatography-coupled mass spectrometry (LC–MS); settings: phocaeicola vulgatus, 2 µM
[10] = The drug is tested on Coprococcus comes strain: ATCC27758 for biotransformation. The drug concentrations were measured before and after a 12-h incubation by liquid-chromatography-coupled mass spectrometry (LC–MS); type: ADME; parameters: dose 2 uM, timepoint 0 vs 12 hours; settings: 2 µM
[11] = The drug is tested on Bacteroides uniformis strain: ATCC8492 for biotransformation. The drug concentrations were measured before and after a 12-h incubation by liquid-chromatography-coupled mass spectrometry (LC–MS); settings: 2 µM
[12] = The drug is tested on Bacteroides dorei strain: DSM17855 for biotransformation. The drug concentrations were measured before and after a 12-h incubation by liquid-chromatography-coupled mass spectrometry (LC–MS); settings: phocaeicola dorei, 2 µM
[13] = bacteroides thetaiotaomicron, 12 h, 2 µM
Description: The drug is tested on Bacteroides thetaiotaomicron strain: VPI-5482 for biotransformation. The drug concentrations were measured before and after a 12-h incubation by liquid-chromatography-coupled mass spectrometry (LC–MS)

[14] = roseburia intestinalis, 12 h, 2 µM
Description: The drug is tested on Roseburia intestinalis strain: L1-82 for biotransformation. The drug concentrations were measured before and after a 12-h incubation by liquid-chromatography-coupled mass spectrometry (LC–MS)

[15] = The drug is tested on Enterococcus faecalis strain: V583 for biotransformation. The drug concentrations were measured before and after a 12-h incubation by liquid-chromatography-coupled mass spectrometry (LC–MS); settings: 2 µM
[16] = The drug is tested on Parabacteroides merdae strain: ATCC43184 for biotransformation. The drug concentrations were measured before and after a 12-h incubation by liquid-chromatography-coupled mass spectrometry (LC–MS); settings: 2 µM
[17] = victivallis vadensis, 12 h, 2 µM
Description: The drug is tested on Victivallis vadensis strain: ATCC BAA-548 for biotransformation. The drug concentrations were measured before and after a 12-h incubation by liquid-chromatography-coupled mass spectrometry (LC–MS)

[18] = bacteroides thetaiotaomicron, 12 h, 2 µM; remark: listed apart in the source
Description: The drug is tested on Bacteroides thetaiotaomicron strain: 7330 for biotransformation. The drug concentrations were measured before and after a 12-h incubation by liquid-chromatography-coupled mass spectrometry (LC–MS)

[19] = The drug is tested on Bifidobacterium ruminantium strain: fecal isolate for biotransformation. The drug concentrations were measured before and after a 12-h incubation by liquid-chromatography-coupled mass spectrometry (LC–MS); settings: 2 µM
[20] = The drug is tested on Bacteroides finegoldii strain: DSM17565 for biotransformation. The drug concentrations were measured before and after a 12-h incubation by liquid-chromatography-coupled mass spectrometry (LC–MS); settings: 2 µM

In the case of CN1CCN(CC/C=C2/c3ccccc3Sc3ccc(S(=O)(=O)N(C)C)cc32)CC1 [THIOTHIXENE], the “Bacterial Biotransformation” value [1] is reported as “Compound NOT metabolized”, the “Bacterial Biotransformation” value [2] is reported as “Compound metabolized” and the “Bacterial Biotransformation” value [3] is reported as “Compound NOT metabolized”. The “Bacterial Biotransformation” value [4] was “Compound NOT metabolized”, the “Bacterial Biotransformation” value [5] was “Compound metabolized” and the “Bacterial Biotransformation” value [6] was “Compound metabolized”. For the same compound, the “Bacterial Biotransformation” value [7] was “Compound metabolized”, the “Bacterial Biotransformation” value [8] was “Compound NOT metabolized” and the “Bacterial Biotransformation” value [9] was “Compound metabolized”. For the same compound, the “Bacterial Biotransformation” value [10] was “Compound NOT metabolized”, the “Bacterial Biotransformation” value [11] was “Compound metabolized” and the “Bacterial Biotransformation” value [12] was “Compound metabolized”. For the same compound, the “Bacterial Biotransformation” value [13] was “Compound NOT metabolized”, the “Bacterial Biotransformation” value [14] was “Compound metabolized” and the “Bacterial Biotransformation” value [15] was “Compound NOT metabolized”. The “Bacterial Biotransformation” value [16] was “Compound NOT metabolized”, the “Bacterial Biotransformation” value [17] was “Compound NOT metabolized” and the “Bacterial Biotransformation” value [18] was “Compound NOT metabolized”.
With CC(NC(C)(C)C)C(=O)c1cccc(Cl)c1 (centres undefined) [BUPROPION] the “Bacterial Biotransformation” value [1] was “Compound NOT metabolized”, the “Bacterial Biotransformation” value [19] was “Compound metabolized” and the “Bacterial Biotransformation” value [2] was “Compound NOT metabolized”. For the same compound, the “Bacterial Biotransformation” value [3] was “Compound metabolized”, the “Bacterial Biotransformation” value [4] was “Compound NOT metabolized” and the “Bacterial Biotransformation” value [5] was “Compound NOT metabolized”. For the same compound, the “Bacterial Biotransformation” value [6] was “Compound NOT metabolized”, the “Bacterial Biotransformation” value [7] was “Compound NOT metabolized” and the “Bacterial Biotransformation” value [8] was “Compound metabolized”. The “Bacterial Biotransformation” value [9] was “Compound NOT metabolized”, the “Bacterial Biotransformation” value [10] was “Compound NOT metabolized” and the “Bacterial Biotransformation” value [11] was “Compound NOT metabolized”. The “Bacterial Biotransformation” value [12] was “Compound NOT metabolized”, the “Bacterial Biotransformation” value [13] was “Compound NOT metabolized” and the “Bacterial Biotransformation” value [15] was “Compound NOT metabolized”. For the same compound, the “Bacterial Biotransformation” value [16] was “Compound metabolized”, the “Bacterial Biotransformation” value [17] was “Compound NOT metabolized” and the “Bacterial Biotransformation” value [18] was “Compound NOT metabolized”. The “Bacterial Biotransformation” value [20] was “Compound NOT metabolized”.
With CCS(=O)(=O)CCn1c([N+](=O)[O-])cnc1C [TINIDAZOLE] the “Bacterial Biotransformation” value [1] was “Compound metabolized”, the “Bacterial Biotransformation” value [19] was “Compound metabolized” and the “Bacterial Biotransformation” value [2] was “Compound metabolized”. For the same compound, the “Bacterial Biotransformation” value [4] was “Compound metabolized”, the “Bacterial Biotransformation” value [5] was “Compound metabolized” and the “Bacterial Biotransformation” value [6] was “Compound metabolized”. For the same compound, the “Bacterial Biotransformation” value [7] was “Compound NOT metabolized”, the “Bacterial Biotransformation” value [8] was “Compound NOT metabolized” and the “Bacterial Biotransformation” value [9] was “Compound metabolized”. For the same compound, the “Bacterial Biotransformation” value [10] was “Compound metabolized”, the “Bacterial Biotransformation” value [11] was “Compound metabolized” and the “Bacterial Biotransformation” value [12] was “Compound metabolized”. For the same compound, the “Bacterial Biotransformation” value [13] was “Compound metabolized”, the “Bacterial Biotransformation” value [14] was “Compound metabolized” and the “Bacterial Biotransformation” value [15] was “Compound metabolized”. For the same compound, the “Bacterial Biotransformation” value [16] was “Compound metabolized”, the “Bacterial Biotransformation” value [17] was “Compound metabolized” and the “Bacterial Biotransformation” value [18] was “Compound metabolized”. The “Bacterial Biotransformation” value [20] was “Compound metabolized”.
For CC(C)C[C@H]1C(=O)N2CCC[C@H]2[C@]2(O)O[C@](NC(=O)[C@@H]3C=C4c5cccc6[nH]c(Br)c(c56)C[C@H]4N(C)C3)(C(C)C)C(=O)N12.CS(=O)(=O)O [BROMOCRIPTINE MESYLATE], the “Bacterial Biotransformation” value [1] was “Compound metabolized”, the “Bacterial Biotransformation” value [19] was “Compound metabolized” and the “Bacterial Biotransformation” value [2] was “Compound metabolized”. For the same compound, the “Bacterial Biotransformation” value [3] was “Compound metabolized”, the “Bacterial Biotransformation” value [4] was “Compound metabolized” and the “Bacterial Biotransformation” value [5] was “Compound metabolized”. The “Bacterial Biotransformation” value [6] was “Compound metabolized”, the “Bacterial Biotransformation” value [7] was “Compound metabolized” and the “Bacterial Biotransformation” value [8] was “Compound metabolized”. The “Bacterial Biotransformation” value [9] was “Compound metabolized”, the “Bacterial Biotransformation” value [11] was “Compound metabolized” and the “Bacterial Biotransformation” value [12] was “Compound metabolized”. For the same compound, the “Bacterial Biotransformation” value [13] was “Compound metabolized”, the “Bacterial Biotransformation” value [14] was “Compound metabolized” and the “Bacterial Biotransformation” value [16] was “Compound metabolized”. For the same compound, the “Bacterial Biotransformation” value [17] was “Compound metabolized”, the “Bacterial Biotransformation” value [18] was “Compound metabolized” and the “Bacterial Biotransformation” value [20] was “Compound metabolized”.
